Measurements from ChEMBL document CHEMBL2346545, “Quinic acid derivatives from Pimpinella brachycarpa exert anti-neuroinflammatory activity in lipopolysaccharide-induced microglia” (Bioorg Med Chem Lett, 2013).
Activity calls are given as the source filed them. The calls are words filed in the database; no cut-off is given here.

Experiments:
[1] = Cytotoxicity against mouse BV2 cells assessed as cell viability at 20 uM by MTT assay; type: cell-based, BV-2; conditions: read-out: Activity
BV-2 [2] = test: Anti-neuroinflammatory activity in mouse BV2 cells assessed as inhibition of LPS-induced nitric oxide production […] by Griess assay relative to control; type: functional, cell-based
[3] = Reduction of SNP-induced nitrite accumulation at 1 to 10 uM after 180 mins by Griess assay
[4] = target: T1, Nitric oxide synthase, inducible (Mus musculus) (UniProt P29477); test: Inhibition of iNOS in LPS-treated mouse BV2 cells assessed as decrease in nitrite level at 1 to 5 uM after 12 hrs by Griess assay; type: cell-based; conditions: BV-2
T1 sequence (whole entry): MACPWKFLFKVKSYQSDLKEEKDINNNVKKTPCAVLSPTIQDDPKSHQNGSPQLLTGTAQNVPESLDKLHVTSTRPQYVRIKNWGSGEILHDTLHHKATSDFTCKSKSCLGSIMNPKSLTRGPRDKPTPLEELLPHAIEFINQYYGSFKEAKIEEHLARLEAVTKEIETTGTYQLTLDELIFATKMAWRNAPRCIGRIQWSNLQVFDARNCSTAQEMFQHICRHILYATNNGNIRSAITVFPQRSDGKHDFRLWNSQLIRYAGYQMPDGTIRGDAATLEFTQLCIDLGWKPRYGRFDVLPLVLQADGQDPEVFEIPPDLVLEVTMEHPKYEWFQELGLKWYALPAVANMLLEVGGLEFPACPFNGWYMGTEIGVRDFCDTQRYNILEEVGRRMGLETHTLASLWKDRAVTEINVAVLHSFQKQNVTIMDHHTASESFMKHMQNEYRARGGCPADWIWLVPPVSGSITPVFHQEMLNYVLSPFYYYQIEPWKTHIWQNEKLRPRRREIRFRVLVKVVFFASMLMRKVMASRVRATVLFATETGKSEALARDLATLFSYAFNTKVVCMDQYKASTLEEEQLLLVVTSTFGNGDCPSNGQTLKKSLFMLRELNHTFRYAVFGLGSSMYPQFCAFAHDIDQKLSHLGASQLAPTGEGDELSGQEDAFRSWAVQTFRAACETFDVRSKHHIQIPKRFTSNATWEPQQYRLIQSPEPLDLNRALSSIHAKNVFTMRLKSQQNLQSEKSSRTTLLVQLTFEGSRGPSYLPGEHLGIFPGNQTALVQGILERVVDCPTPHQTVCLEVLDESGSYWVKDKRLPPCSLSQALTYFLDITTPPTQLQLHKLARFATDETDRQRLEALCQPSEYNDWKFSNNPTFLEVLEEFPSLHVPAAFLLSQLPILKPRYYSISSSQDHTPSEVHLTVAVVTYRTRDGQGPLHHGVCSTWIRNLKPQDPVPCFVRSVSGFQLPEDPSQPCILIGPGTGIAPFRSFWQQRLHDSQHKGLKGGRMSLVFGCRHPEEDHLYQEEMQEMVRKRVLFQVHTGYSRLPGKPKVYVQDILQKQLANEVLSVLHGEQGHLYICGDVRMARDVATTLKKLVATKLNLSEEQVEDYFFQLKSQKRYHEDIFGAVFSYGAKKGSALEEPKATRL

BV-2 [5] = test: Downregulation of iNOS expression in LPS-treated mouse BV2 cells at 1 to 10 uM incubated for 30 mins prior to LPS challenge measured after 6 hrs by Western blot analysis; type: functional, cell-based
RAW264.7 [6] = test: Cytotoxicity against mouse RAW264.7 cells assessed as decrease in cell viability at 20 uM; type: cell-based; conditions: raw264.7, 20 µM
RAW264.7 [7] = test: Anti-neuroinflammatory activity in mouse RAW264.7 cells assessed as inhibition of LPS-induced nitric oxide production; type: functional, cell-based
[8] = Reduction of SNP-induced nitrite accumulation at 5 to 10 uM after 180 mins by Griess assay
[9] = target: T1, Nitric oxide synthase, inducible (Mus musculus); test: Inhibition of iNOS in LPS-treated mouse BV2 cells assessed as decrease in nitrite level at 1 to 10 uM after 12 hrs by Griess assay; type: cell-based; conditions: BV-2
BV-2 [10] = test: Downregulation of iNOS expression in LPS-treated mouse BV2 cells at 10 uM incubated for 30 mins prior to LPS challenge measured after 6 hrs by Western blot analysis; type: functional, cell-based

IC50 (BV-2 [2]) [µM] | Structure (SMILES) | viability at 20 µM [1] [%] | further results
24.6 | COC(=O)[C@]1(O)C[C@@H](O)[C@@H](OC(=O)/C=C/c2ccc(O)c(O)c2)[C@H](OC(=O)/C=C/c2ccc(O)c(O)c2)C1 | 92.2 | 
9.04 | COC(=O)[C@]1(O)C[C@@H](OC(=O)/C=C/c2ccc(O)c(O)c2)[C@@H](O)[C@H](OC(=O)/C=C/c2ccc(O)c(O)c2)C1 | 91.1 | Activity [3]: Active; inhibition [4]: Active; Activity (BV-2 [5]): inactive; Activity (RAW264.7 [6]): Non-toxic; IC50 (RAW264.7 [7]): 42.9 µM
16.6 | COC(=O)[C@]1(O)C[C@@H](O)[C@@H](OC(=O)/C=C/c2ccc(O)c(O)c2)[C@H](O)C1 | 92.6 | 
 | CNC(=N)NCCC[C@H](N)C(=O)O [TILARGININE] | 103 | 
45 | COC(=O)[C@]1(O)C[C@@H](O)[C@@H](OC(=O)/C=C/c2ccc(O)cc2)[C@H](O)C1 | 108 | 
12.5 | CO[C@@H](CC(=O)O[C@@]1(C(=O)O)C[C@@H](O)[C@@H](O)[C@H](OC(=O)/C=C/c2ccc(O)c(O)c2)C1)c1ccc(O)c(O)c1 | 90.9 | 
12.1 | COC(=O)[C@]1(O)C[C@@H](O)[C@@H](O)[C@H](OC(=O)/C=C/c2ccc(O)c(O)c2)C1 [CHLOROGENIC ACID METHYL ESTER] | 95.3 | 
86.4 | COC(=O)[C@]1(O)C[C@@H](O)[C@@H](O)[C@H](OC(=O)/C=C\c2ccc(O)cc2)C1 | 109 | 
4.66 | CO[C@@H](CC(=O)O[C@@H]1C[C@](OC(=O)/C=C/c2ccc(O)c(O)c2)(C(=O)O)C[C@@H](O)[C@H]1O)c1ccc(O)c(O)c1 | 93.2 | Activity [8]: Active; inhibition [9]: Active; Activity (RAW264.7 [6]): Non-toxic; Activity (BV-2 [10]): Active; IC50 (RAW264.7 [7]): 175 µM
23.5 | O=C(/C=C/c1ccc(O)cc1)O[C@@H]1C[C@](OC(=O)/C=C/c2ccc(O)c(O)c2)(C(=O)O)C[C@@H](O)[C@H]1O | 94.3 | 
82 | COC(=O)[C@]1(O)C[C@@H](O)[C@@H](O)[C@H](OC(=O)/C=C/c2ccc(O)cc2)C1 | 109 | 
52.8 | O=C(/C=C\c1ccc(O)cc1)O[C@@H]1C[C@](OC(=O)/C=C\c2ccc(O)cc2)(C(=O)O)C[C@@H](O)[C@H]1O | 96 | 
22.6 | O=C(/C=C/c1ccc(O)c(O)c1)O[C@@H]1C[C@](OC(=O)/C=C/c2ccc(O)c(O)c2)(C(=O)O)C[C@@H](O)[C@H]1O [1,5-O-TRANS-DICAFFEOYLQUINIC ACID] | 93.7 | 
59.8 | O=C(/C=C\c1ccc(O)cc1)O[C@@H]1C[C@](OC(=O)/C=C/c2ccc(O)cc2)(C(=O)O)C[C@@H](O)[C@H]1O | 98.1 | 
17 | COC(=O)[C@]1(O)C[C@@H](O)[C@@H](O)[C@H](OC(=O)/C=C\c2ccc(O)c(O)c2)C1 | 90.6 | 
20.2 | COC(=O)[C@@]1(O)C[C@@H](O)[C@H](OC(=O)/C=C/c2ccc(O)c(O)c2)[C@H](OC(=O)/C=C/c2ccc(O)c(O)c2)C1 [3,4-O-TRANS-CAFFEOYLQUINIC ACID METHYL ESTER] | 96.8 | 
